# Test results published in patent US6166290A, “Glutathione-S-conjugate transport in plants” (The Trustees of the University of Pennsylvania, priority 1997, dated 2000).
# Read-outs that look alike come from different tables or passages of the source.
# Experiments:
# [1] = test system: endogenous GS-X pump of plant vacuolar membranes; settings: cited from earlier work
# [2] = molecular target: T1, YCF1 (vacuolar membrane vesicles purified from DTY165 cells) (Saccharomyces cerevisiae, UniProt P39109); test: [3H]DNP-GS uptake by vacuolar membrane vesicles purified from DTY165 cells; type: biochemical; settings: for IC50: 5 μM gramicidin D, read-out: I50 for MgATP-dependent, uncoupler-insensitive DNP-GS uptake
# T1 construct: endogenous in cells; host or cells: S. cerevisiae DTY165 (wild type YCF1), vacuolar membrane vesicles
# T1 sequence (P39109 whole entry): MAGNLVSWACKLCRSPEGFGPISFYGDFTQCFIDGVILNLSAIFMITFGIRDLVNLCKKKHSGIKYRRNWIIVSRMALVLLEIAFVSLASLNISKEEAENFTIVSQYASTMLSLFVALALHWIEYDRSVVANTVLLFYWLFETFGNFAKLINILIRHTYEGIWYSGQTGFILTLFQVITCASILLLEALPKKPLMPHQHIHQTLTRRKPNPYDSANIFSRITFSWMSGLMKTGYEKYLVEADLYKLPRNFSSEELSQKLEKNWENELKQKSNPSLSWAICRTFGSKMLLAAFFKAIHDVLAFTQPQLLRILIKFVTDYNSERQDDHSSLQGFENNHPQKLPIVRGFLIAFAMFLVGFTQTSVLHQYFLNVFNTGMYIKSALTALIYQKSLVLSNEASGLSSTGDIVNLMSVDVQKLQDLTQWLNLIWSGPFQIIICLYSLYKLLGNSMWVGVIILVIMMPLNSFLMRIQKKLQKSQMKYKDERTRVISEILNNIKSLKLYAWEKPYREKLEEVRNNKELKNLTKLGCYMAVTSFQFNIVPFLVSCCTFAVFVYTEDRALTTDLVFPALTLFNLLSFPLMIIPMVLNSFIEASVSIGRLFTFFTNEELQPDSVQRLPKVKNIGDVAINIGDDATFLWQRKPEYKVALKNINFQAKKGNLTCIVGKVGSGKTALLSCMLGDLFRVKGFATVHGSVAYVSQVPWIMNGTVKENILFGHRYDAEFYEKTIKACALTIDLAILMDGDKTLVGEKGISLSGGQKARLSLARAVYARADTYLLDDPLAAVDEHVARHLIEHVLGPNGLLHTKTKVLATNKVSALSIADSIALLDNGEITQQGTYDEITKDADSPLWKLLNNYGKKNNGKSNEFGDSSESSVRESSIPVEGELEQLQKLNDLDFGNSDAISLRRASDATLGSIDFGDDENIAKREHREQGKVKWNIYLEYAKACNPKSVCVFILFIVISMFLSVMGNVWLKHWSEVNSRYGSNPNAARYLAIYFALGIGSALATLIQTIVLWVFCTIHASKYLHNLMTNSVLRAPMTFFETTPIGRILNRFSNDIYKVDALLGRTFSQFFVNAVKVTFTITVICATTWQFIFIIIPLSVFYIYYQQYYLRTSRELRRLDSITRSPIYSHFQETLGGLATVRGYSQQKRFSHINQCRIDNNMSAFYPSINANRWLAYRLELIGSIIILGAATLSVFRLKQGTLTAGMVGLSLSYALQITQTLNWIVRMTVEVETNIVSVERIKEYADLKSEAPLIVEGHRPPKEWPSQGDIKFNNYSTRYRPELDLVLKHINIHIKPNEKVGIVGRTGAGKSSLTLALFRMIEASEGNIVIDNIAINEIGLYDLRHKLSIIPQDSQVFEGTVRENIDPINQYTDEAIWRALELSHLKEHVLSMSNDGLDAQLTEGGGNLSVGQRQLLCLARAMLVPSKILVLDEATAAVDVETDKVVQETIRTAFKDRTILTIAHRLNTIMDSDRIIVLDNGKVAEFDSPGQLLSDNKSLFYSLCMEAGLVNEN
# Procedure: (§1) For the routine preparation of vacuolar membrane vesicles, 15 ml of stationary phase cultures of DTY165 or DTY167 were diluted into 1-liter volumes of fresh YPD medium, grown for 24 hours at 30° C. to an OD600 nm of approximately 0.8 and collected by centrifugation. After washing with distilled water, the cells were converted to spheroplasts with Zymolyase 20T (ICN) (Kim et al., 1994, supra) and intact vacuoles were isolated by flotation centrifugation of spheroplast lysates on Ficoll 400 step gradients as described by Roberts et al. (1991, Methods. Enzymol. 194:644-661). Both the spheroplast lysis buffer and Ficoll gradients contained 2 mg/ml bovine serum albumin, 1 μg/ml aprotinin, 1 μg/ml leupeptin, 1 μg/ml pepstatin, and 1 mM PMSF to minimize proteolysis. The resulting vacuole fraction was vesiculated in 5 mM MgCl2, 25 mM KCl, 10 mM Tris-Mes (pH 6.9) containing 2 mg/ml bovine serum albumin, 1 μg/ml aprotinin, 1 μg/ml leupeptin, 1 μg/ml pepstatin, and 1 mM PMSF, pelleted by centrifugation at 37,000× g for 25 min, and resuspended in suspension medium (1.1 M glycerol, 2 mM dithiothreitol, 1 mM Tris-EGTA, 2 mg/ml bovine serum albumin, 1 μg/ml aprotinin, 1 μg/ml leupeptin, 1 μg/ml pepstatin, 1 mM PMSF, 5 mM Tris-Mes, pH 7.6) (Kim et al., 1995, J. Biol. Chem. 270:2630-2635).
# (§2) Unless otherwise indicated, [^3 H]DNP-GS uptake was measured at 25° C. in 200 μl reaction volumes containing 3 mM ATP, 3 mM MgSO4, 5 μM gramicidin-D, 10 mM creatine phosphate, 16 units/ml creatine kinase, 50 mM KC 1, 1 mg/ml bovine serum albumin, 400 mM sorbitol, 25 mM Tris-Mes (pH 8.0), and 66.2 μM [^3 H]DNP-GS (8.7 mCi/mmol) (Li et al., 1995, supra). […] Uptake was initiated by the addition of vacuolar membrane vesicles (10-15 μg of membrane protein), brief mixing of the samples on a vortex mixer and uptake was then allowed to proceed for 1-60 minutes. Uptake was terminated by the addition of 1 ml of ice-cold wash medium (400 mM sorbitol, 3 mM Tris-Mes, pH 8.0) and vacuum filtration of the suspension through prewetted Millipore HA cellulose nitrate membrane filters (pore diameter, 0.45 μm). The filters were rinsed twice with 1 ml of ice-cold wash medium and air-dried, and radioactivity was determined by liquid scintillation counting in BCS mixture (Amersham Corp.). Nonenergized [^3 H]DNP-GS uptake and extravesicular solution trapped on the filters were enumerated by the same procedure except that ATP and Mg^2 +were omitted from the uptake medium.
# [3] = test system: vacuolar membrane vesicles purified from DTY167 cells (ycf1Δ mutant); type: biochemical, Saccharomyces cerevisiae; settings: 5 μM gramicidin D
# Procedure: as §1, §2
# [4] = test system: membrane vesicles purified from pYES3-transformed DTY168 cells; test: DNP-GS uptake by membrane vesicles from pYES3 (empty vector)-transformed DTY168 cells; type: biochemical, Saccharomyces cerevisiae
# Procedure: S. cerevisiae strain DTY168 (MATα his6, leu2-3, -112, ura3-52 ycf1::hisG) was transformed with pYES3-AtMRP1 or empty vector lacking the AtMRP1 insert (pYES3) by the LiOAc/PEG method (Giest et al., 1991, Yeast 7:253-263) and selected for uracil prototrophy by plating on AHC medium containing tryptophan (Kim et al., 1994, supra).
# For the preparation of membrane vesicles, 15 ml volumes of stationary phase cultures of the transformants were diluted into 1 L of fresh AHC medium and grown to an OD600 nm of about 1.2. Membrane vesicles were purified as described herein and in Kim et al. (1995, supra).
# DNP-GS uptake was measured as described herein in 200 μl reaction volumes containing 3 mM ATP, 3 mM MgSO4, 5 μM gramicidin-D, 10 mM creatine phosphate, 16 units/ml creatine kinase, 50 mM KCl, 1 mg/ml BSA, 400 mM sorbitol, 25 mM Tris-Mes (pH 8.0) and the indicated concentrations of [^3 H]DNP-GS (17.4 mCi/mmol).
# [5] = test system: vacuolar GS-X pump (vacuolar membrane vesicles, V. radiata hypocotyls); test: GS-conjugate uptake by vacuolar membrane vesicles from etiolated hypocotyls of V. radiata; type: biochemical, Vigna radiata
# Procedure: Values shown are means ±SE (n=3).
# Vacuolar membrane vesicles were purified from etiolated hypocotyls of V. radiata cv.
# Unless otherwise indicated, [^3 H]medicarpin or [3H]medicarpin-GS uptake was measured at 25° C. in 200 μl reaction volumes containing 3 mM ATP, 3 mM MgSO4, 10 mM creatine phosphate, 16 U/ml creatine kinase, 50 mM KCl, 0.1% (w/v) BSA, 400 mM sorbitol and 25 mM Tris-Mes buffer, pH 8.0. Uptake was initiated by the addition of 12 μl membrane vesicles (30-40 μg protein) and brief mixing of the samples on a vortex mixer. Uptake was terminated by the addition of 1 ml ice-cold wash medium (400 mM sorbitol, 3 mM Tris-Mes, pH 8.0) and vacuum filtration of the suspension through prewetted HA cellulose nitrate filters (pore diameter 0.45 μm). The filters were rinsed twice with a 1 ml ice-cold wash medium, air-dried and radioactivity was determined by liquid scintillation counting.
# [6] = test system: vacuolar GS-X pump (vacuolar membrane vesicles, Z. mays roots); test: GS-conjugate uptake by vacuolar membrane vesicles from roots of Z. mays; type: biochemical, Zea mays
# [7] = molecular target: T1, YCF1 (vacuolar membrane vesicles purified from DTY165 cells); test: biochemical; type: biochemical; settings: 24 h, read-out: increase of 109Cd.GS2 uptake into vesicles from pretreated cells
# Procedure: In experiments involving cadmium transport, dithiothreitol and EGTA were removed from the suspension medium to prevent the attenuation of YCF1-dependent Cd^2+ transport otherwise exerted by these compounds. Vesiculated vacuolar membranes were subjected to three cycles of 50-fold dilution into simplified suspension medium (1.1 M glycerol, 5 mM Tris-Mes, pH 8.0), centrifugation at 100,000× g for 35 minutes and resuspension in the same medium before use.
# Singly radiolabeled ^109 Cd.GSn and doubly radio-labeled ^109 Cd[^3 H].GS^n complexes were prepared by sequential gel-filtrationand anion-exchange chromatography of the reaction products generated by incubating 20 mM ^109 CdSO4 (78.4 mCi/mmol) with 40 mM GSH or 40 mM [^3 H]GSH (240 mCi/mmol) in 15 ml 10 mM phosphate buffer (pH 8.0) containing 150 mM KNO3 at 45° C. for 24 hours. For gel-filtration, 2 ml aliquots of the reaction mixture were applied to a column (40×1.5 cm ID) packed with water-equilibrated Sephadex G-1 5, eluted with deionized water and ^109 Cd and/or ^3 H in the fractions was measured by liquid scintillation counting. The fractions encompassed by each of the two ^109 Cd.GSn peaks identified were pooled, lyophilized and redissolved in 4 ml of loading buffer (5 mM Tris-Mes, pH 8.0). For anion-exchange chromatography, 0.5 ml aliquots of the resuspended lyophilizates from gel-filtration chromatography were applied to a Mono-Q HR5/5 column (Pharmacia) equilibrated with the same buffer. Elution was with a linear gradient of NaCl (0.5 ml/minute; 0-500 mM) dissolved in loading buffer. The individual fractions corresponding to the major peaks of ^109 Cd obtained from the Mono-Q column (one each for the peaks resolved by gel-filtration chromatography) were pooled, lyophilized and resuspended in 4 ml deionized water after liquid scintillation counting.
# MgATP-energized, uncoupler-insensitive ^109 Cd^2+ uptake by vacuolar membrane vesicles was measured at 25° C. in 200 μl reaction volumes containing 3 mM ATP, 3 mM MgSO4, 5 μM gramicidin-D, 10 mM creatine phosphate, 16 units/ml creatine kinase, 50 mM KCl, 400 mM sorbitol, 25 mM Tris-Mes (pH 8.0) and the indicated concentrations of ^109 CdSO4, GSH or ^109 Cd- and/or ^3 H-labeled purified Cd.GSn complexes as described herein except that the wash media contained 100 μM CdSO4 in addition to sorbitol (400 mM) and Tris-Mes (3 mM, pH 8.0).
# DTY167 cells = test: Growth inhibition of DTY167 (ycf1Δ mutant) cells by CDNB; type: cell-based; settings: Saccharomyces cerevisiae, 24 hours, read-out: diminution of optical density of culture
# Procedure: (§3) FIGS. 1A-1B are a series of graphs depicting differential sensitivities of DYT165 cells (wild type, FIG. 1A) and DTY167 cells (ycf1Δ mutant, FIG. 1B) to growth inhibition by 1-chloro-2,4-dinitrobenzene (CDNB). Cells were grown at 30° C. for 24 hours to an OD600 nm of approximately 1.4 in YPD medium before inoculation of aliquots into 15 ml volumes of the same medium containing 0-60 μM CDNB. OD600 nm was measured at the times indicated.
# (§4) Two strains of S. cerevisiae were used in these studies: DTY165 (MATα ura3-52 his6 leu2-3,-112 his3-Δ200 trp1-901 lys2-801 suc2-Δ) and the isogenic ycf1Δ mutant strain, DTY167 (MATα ura 3-52 his6 leu2-3,-112 his3-Δ200 trp 1-901 lys2-801 suc2-Δ, ycf1::hisG). The strains were routinely grown in rich (YPD) medium, or, when transformed with plasmid containing functional YCF1 gene, in synthetic complete medium (Sherman et al., 1983, Methods in Yeast Genetics, Cold Spring Harbor Laboratory, New York) or AHC medium (Kim et al., 1994, supra) lacking the appropriate amino acids. Escherichia coli strains XL1-blue (Stratagene) and DH11S were employed for the construction and maintenance of plasmid stocks (Ausubel et al., 1987, Current Protocols in Molecular Biology, Wiley, New York).
# (§5) The isogenic wild type strain DTY165 and the ycf1Δ mutant strain, DTY167, were indistinguishable during growth in YPD medium lacking CDNB; both strains grew at the same rate after a brief lag. However, the addition of CDNB to the culture medium caused a greater retardation of the growth of DTY167 cells (FIG. 1B) than DTY165 cells (FIG. 1A). […] The optical densities of the DTY167 cultures were diminished by 65, 82, 85, and 91% by 40, 50, 60, and 70 μM CDNB, respectively, after 24 hours of incubation (FIG. 1B), whereas the corresponding diminutions for the DTY165 cultures were 14, 31, 59, and 92% (FIG. 1A). The increase in sensitivity to CDNB conferred by deletion of the YCF1 gene was similar to that seen with cadmium.
# DTY165 cells = test: Growth inhibition of DTY165 (wild type) cells by CDNB; type: cell-based; settings: Saccharomyces cerevisiae, 24 hours, read-out: diminution of optical density of culture
# Procedure: as §3, §4, §5
# [8] = read-out: I50 for uptake of IAA-GS
smiles,measurement,setting,value
CCN1C(=O)CC(SC[C@H](NC(=O)CC[C@H](N)C(=O)O)C(=O)NCC(=O)O)C1=O (stereo partly shown) [glutathione-S-N-ethylmaleimide],Km,[1]; read-out: Km for transport by endogenous plant vacuolar GS-X pump,500 µM
[O]=[V]([O-])([O-])[O-] [Vanadate],IC50,[2]; listed as vanadate,179 µM
same,IC50,[2],179 µM
same,"I50 for MgATP-dependent, uncoupler-insensitive DNP-GS uptake",[3],Insensitive
same,sensitivity of DNP-GS uptake to vanadate,[4],insensitive
same,IC50,"[5]; V. radiata, read-out: I50 for uptake of C3G-GS",7.9 µM
same,IC50,[5]; [8],6.5 µM
same,inhibition of MgATP-dependent [3H]medicarpin-GS uptake,"[5]; vanadate 10 μM, DNP-GS 100 μM, gramicidin D",more than 85%
same,IC50,[6]; read-out: I50 for uptake of ABA-GS,> 150 µM
same,IC50,[6]; read-out: I50 for uptake of C3G-GS,8.2 µM
same,IC50,[6]; [8],5.5 µM
same,IC50,"[1]; vanadate, read-out: I50 for inhibition of the endogenous vacuolar GS-X pump of plant cells",7.5 ± 3.9 µM
"O=[N+]([O-])c1ccc(Cl)c([N+](=O)[O-])c1 [CDNB, 1-chloro-2,4-dinitrobenzene]",fold induction at 150 µM,"[2]; 24 h, read-out: increase of [3H]DNP-GS uptake into vesicles from pretreated cells",2.8
same,fold induction at 150 µM,[7],1.7
same,inhibition of growth at 40 µM,DTY167 cells; 40 μM CDNB,65%
same,inhibition of growth at 50 µM,DTY167 cells; 50 μM CDNB,82%
same,inhibition of growth at 60 µM,DTY167 cells; 60 μM CDNB,85%
same,inhibition of growth at 70 µM,DTY167 cells; 70 μM CDNB,91%
same,inhibition of growth at 40 µM,DTY165 cells; 40 μM CDNB,14%
same,inhibition of growth at 50 µM,DTY165 cells; 50 μM CDNB,31%
same,inhibition of growth at 60 µM,DTY165 cells; 60 μM CDNB,59%
same,inhibition of growth at 70 µM,DTY165 cells; 70 μM CDNB,92%
